biological target: EGFR (UniProt P00533)
Sequence (P00533 whole entry, looked up): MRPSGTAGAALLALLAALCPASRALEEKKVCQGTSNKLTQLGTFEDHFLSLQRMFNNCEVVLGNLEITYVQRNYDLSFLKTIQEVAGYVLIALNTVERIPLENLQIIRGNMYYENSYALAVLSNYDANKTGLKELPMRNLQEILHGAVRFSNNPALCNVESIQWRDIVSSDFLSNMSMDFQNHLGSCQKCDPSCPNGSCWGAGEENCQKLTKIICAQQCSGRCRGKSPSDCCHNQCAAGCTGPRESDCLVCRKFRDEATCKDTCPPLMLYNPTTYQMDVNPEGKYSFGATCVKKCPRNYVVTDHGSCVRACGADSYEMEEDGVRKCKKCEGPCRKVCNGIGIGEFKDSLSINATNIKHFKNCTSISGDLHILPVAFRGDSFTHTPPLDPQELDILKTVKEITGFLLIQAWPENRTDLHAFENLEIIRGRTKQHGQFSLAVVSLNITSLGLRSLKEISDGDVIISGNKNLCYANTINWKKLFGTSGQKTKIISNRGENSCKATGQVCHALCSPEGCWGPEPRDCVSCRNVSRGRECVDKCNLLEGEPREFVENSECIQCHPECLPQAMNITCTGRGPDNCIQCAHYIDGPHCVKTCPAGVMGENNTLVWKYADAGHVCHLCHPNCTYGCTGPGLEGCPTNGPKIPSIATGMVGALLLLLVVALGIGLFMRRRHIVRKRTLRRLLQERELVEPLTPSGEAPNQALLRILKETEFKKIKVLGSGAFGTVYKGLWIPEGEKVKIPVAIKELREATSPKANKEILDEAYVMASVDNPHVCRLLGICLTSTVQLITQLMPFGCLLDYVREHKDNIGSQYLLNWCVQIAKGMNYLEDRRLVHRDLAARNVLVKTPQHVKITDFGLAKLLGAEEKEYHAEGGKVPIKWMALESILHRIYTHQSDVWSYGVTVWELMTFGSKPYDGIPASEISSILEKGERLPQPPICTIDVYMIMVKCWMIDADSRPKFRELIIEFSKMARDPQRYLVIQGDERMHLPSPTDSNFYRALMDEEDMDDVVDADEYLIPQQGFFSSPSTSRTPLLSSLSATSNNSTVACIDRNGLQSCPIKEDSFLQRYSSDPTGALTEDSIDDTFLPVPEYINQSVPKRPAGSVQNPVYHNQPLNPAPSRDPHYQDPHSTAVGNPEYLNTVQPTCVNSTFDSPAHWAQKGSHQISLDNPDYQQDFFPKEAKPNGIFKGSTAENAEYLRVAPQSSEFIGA

Row | SMILES | IC50 [µM]
1 | COc1cc(Nc2nccc(-n3ccc(-c4ccc(Cl)cc4)n3)n2)cc(OC)c1OC | ≥ 10
2 | COc1cc(Nc2ccnc(Nc3ccc4c(cnn4Cc4ccccc4)c3)n2)cc(OC)c1OC | 1.5 to 5
3 | COc1cc(Nc2nccc(-n3c(=O)oc4ccccc43)n2)cc(OC)c1OC | ≥ 10
4 | Cc1cccc(Nc2ccnc(Nc3cccc(Br)c3)n2)c1 | ≥ 10
5 | COc1cc(Nc2nccc(Nc3cc(C(C)(C)C)n[nH]3)n2)cc(OC)c1OC | 5 to 10
6 | COc1cc(Nc2nccc(Nc3ccc4c(cnn4Cc4ccccc4)c3)n2)cc(OC)c1OC | < 1.5
7 | COc1cc(Nc2ccnc(Nc3ccc(Oc4ccccc4)cc3)n2)cc(OC)c1OC | 5 to 10
8 | COc1ccc(-c2ccn(-c3ccnc(Nc4cc(OC)c(OC)c(OC)c4)n3)n2)cc1 | 5 to 10
9 | Cc1cccc(Nc2nccc(Nc3cccc(Br)c3)n2)c1 | ≥ 10

Further lines, results first:

Row | IC50 [µM] | SMILES
10 | ≥ 10 | Clc1cccc(Nc2ccnc(Nc3cccc(Cl)c3)n2)c1
11 | ≥ 10 | COc1cc(Nc2ccnc(-n3ccc4ccccc43)n2)cc(OC)c1OC
12 | ≥ 10 | COc1cc(Nc2ccnc(Nc3ccc(OCc4ccccc4)cc3)n2)cc(OC)c1OC
13 | ≥ 10 | COc1cc(Nc2nccc(-n3c(N)nc4ccccc43)n2)cc(OC)c1OC
14 | ≥ 10 | COc1cc(Nc2nccc(-n3c(=O)[nH]c4ccccc43)n2)cc(OC)c1OC
15 | ≥ 10 | COc1ccc(Nc2ccnc(Nc3ccc(OC)c(OC)c3)n2)cc1OC
16 | ≥ 10 | COc1cc(Nc2nccc(-n3ccc4ccccc43)n2)cc(OC)c1OC
